Test results reported in patent publication US6855715B1, “Serine protease inhibitors” (Eli Lilly and Company, priority 1999, dated 2005).

System: not given
Assay: not given
Conditions: not given

| Compound | melting point |
| --- | --- |
| COc1ccc(C(=O)N[C@@H](CNC(=O)c2ccc(C(C)(C)C)cc2)c2ccccc2)cc1 [Example 257, (R)-N-[2-(4-Methoxybenzoylamino)-2-phenylethyl]-4-tert-butylbenzamide] | 171 to 175 °C |
| COc1ccc(C(=O)N[C@@H](C(=O)N2CCN(CCC3CCCC3)CC2)c2ccccc2)cc1.Cl.O (hydrate or solvate) | 190 to 192 °C |
| COc1ccc(C(=O)N[C@@H](CNC(=O)C2CCN(C3CCN(C)CC3)CC2)c2ccccc2)cc1 [Example 262, (R)-N-[2-(4-Methoxybenzoylamino)-2-phenylethyl]-1-(1-methylpiperidin-4-yl)piperidine-4-carboxamide] | 252 to 259 °C |
| COc1ccc(C(=O)N[C@@H](CNC(=O)c2ccc(C)cc2)c2ccccc2)cc1 [Example 254, (R)-N-[2-(4-Methoxybenzoylamino)-2-phenylethyl]-4-methylbenzamide] | 230 to 238 °C |
| COc1ccc(C(=O)N[C@@H](CNC(=O)C2CCN(C3CCCC3)CC2)c2ccccc2)cc1 [Example 259, (R)-N-[2-(4-Methoxybenzoylamino)-2-phenylethyl]-1-cyclopentylpiperidine-4-carboxamide] | 253 to 257 °C |
| COc1ccc(C(=O)N[C@@H](CNC(=O)C2CCN(C3CCCCC3)CC2)c2ccccc2)cc1 [Example 260, (R)-N-[2-(4-Methoxybenzoylamino)-2-phenylethyl]-1-cyclohexylpiperidine-4-carboxamide] | 239 to 243 °C |
| CCN1CCC(C(=O)NC[C@H](NC(=O)c2ccc(OC)cc2)c2ccccc2)CC1 [Example 261, (R)-N-[2-(4-Methoxybenzoylamino)-2-phenylethyl]-1-ethylpiperidine-4-carboxamide] | 245 to 251 °C |
| COc1ccc(C(=O)N[C@@H](C(=O)N2CCN(CC3CCN(C(C)C)CC3)CC2)c2ccccc2)cc1.Cl | 172 to 180 °C (dec.) |
| CCc1ccc(C(=O)NC[C@H](NC(=O)c2ccc(OC)cc2)c2ccccc2)cc1 [Example 255, (R)-N-[2-(4-Methoxybenzoylamino)-2-phenylethyl]-4-ethylbenzamide] | 222 to 229 °C |
| COc1ccc(C(=O)N[C@@H](CNC(=O)c2ccc(C(C)C)cc2)c2ccccc2)cc1 [Example 256, (R)-N-[2-(4-Methoxybenzoylamino)-2-phenylethyl]-4-isopropylbenzamide] | 239 to 244 °C |

System: plasma
Assay: Partial Thromboplastin Time (Prothrombin) Test Protocol
Type: biochemical
Conditions: concentration of the solution added; final concentration in the assay mixture is one third of this value; Example 66 and comparison compounds: average of 3 tests
Experimental: The ability of a test compound to elongate Partial Thromboplastin Time (Prothrombin Time) may be evaluated in the following test protocols.
Partial Thromboplastin Time (Prothrombin) Test Protocol Venous blood was collected into 3.2% (0.109 m) trisodium citrate vacutainer tubes at 1 volume of anticoagulant to nine volumes of blood. The blood cells were separated by centrifugation at 700 g for ten minutes to yield plasma, which was frozen at […] until required.
To perform the test, 100 μl of plasma was pipetted into in a glass test tube, 1 μl of test compound in DMSO was added, and allowed to warm to 37° over two minutes. 100 μl of warm (37°) Manchester (tissue thromboplasin) reagent (Helena Biosciences, UK) was added, allowed to equilibrate for two minutes. 100 μl of warm (37°) 25 mM calcium chloride solution was added to initiate clotting. The test tube was tilted three times through a 90° angle every five seconds to mix the reagents and the time to clot formation recorded. Data from a series of observations and test compound concentrations are analysed by a SAS statistical analysis program and a CT2 (Concentration required to double clotting time) for each compound is generated.

| Compound | Conc. necessary to double the prothrombin time [µM] |
| --- | --- |
| CN1CCC(C2CCN(C(=O)[C@H](NC(=O)c3ccc(Cl)c(N)c3)c3ccccc3)CC2)CC1 [Example 63, 1-(3-Amino-4-chlorobenzoyl-D-phenylglycinyl)-1′-methyl-4,4′-bispiperidine] | 2.1 |
| Nc1cc2ccccc2cc1C(=O)N[C@@H](C(=O)N1CCC(C2CCNCC2)CC1)c1ccccc1 [Example 8, 1-(3-Amino-2-naphthoyl-D-phenylglycinyl)-4,4′-bispiperidine] | 26 |
| CS(=O)(=O)c1cc(F)ccc1N1CCN(C(=O)[C@H](NC(=O)c2cc(N)ccc2N)c2ccccc2)CC1 [Example 27, 1-(2,5-Diaminobenzoyl-D-phenylglycinyl)-4-(4-fluoro-2-methylsulphonylphenyl)piperazine] | 6.7 |
| COc1ccc(C(=O)N[C@@H](C(=O)N2CCN(c3ccc(F)cc3S(C)(=O)=O)CC2)c2ccccc2)cc1 [Example 39, 1-(4-Methoxybenzoyl-D-phenylglycinyl)-4-(4-fluoro-2-methylsulphonylphenyl)piperazine] | 12 |
| CS(=O)(=O)c1cc(F)ccc1N1CCN(C(=O)[C@H](NC(=O)c2ccc3ccnc(N)c3c2)c2ccccc2)CC1.O=C(O)C(F)(F)F.O=C(O)C(F)(F)F [1-aminoisoquinolin-7-oyl-D-phenylglycine-4-(4-fluoro-2-methanesulfonylphenyl)-piperazinamide ditrifluoroactetate salt, reference compound] | 45 |
| CN1CCC(C2CCN(C(=O)[C@H](NC(=O)c3cccc(N)c3)c3ccccc3)CC2)CC1 [Example 62, 1-(3-Aminobenzoyl-D-phonylglycinyl)-1′-methyl-4,4′-bispiperidine] | 8.6 |
| CS(=O)(=O)c1cc(F)ccc1N1CCN(C(=O)[C@H](NC(=O)c2cccc(N)c2)c2ccccc2)CC1 [Example 30, 1-(3-Aminobenzoyl-D-phenylglycinyl)-4-(4-fluoro-2-methylsulphonylphenyl)piperazine] | 7.8 |
| CN1CCC(C2CCN(C(=O)[C@H](NC(=O)c3ccc4cc[nH]c4c3)c3ccccc3)CC2)CC1 [Example 66, 1-(Indol-6-carbonyl-D-phenylglycinyl)-1′-methyl-4,4′-bispiperidine] | 2.1 |
| CNc1ccc(C(=O)N[C@@H](C(=O)N2CCC(C3CCN(C)CC3)CC2)c2ccccc2)cc1 [Example 70, 1-(4-(Methylamino)benzoyl-D-phenylglycinyl)-1′-methyl-4,4′-bispiperidine] | 4.0 |
| CN1CCC(C2CCN(C(=O)[C@H](NC(=O)c3ccc(Br)c(N)c3)c3ccccc3)CC2)CC1 [Example 68, 1-(3-Amino-4-bromobenzoyl-D-phenylglycinyl)-1′-methyl-4,4′-bispiperidine] | 3.6 |
| COc1ccc(C(=O)N[C@@H](C(=O)N2CCC(C3CCN(C)CC3)CC2)c2ccccc2)cc1N [Example 69, 1-(3-Amino-4-methoxybenzoyl-D-phenylglycinyl)-1′-methyl-4,4′-bispiperidine] | 5.8 |
| Cc1ccc(C(=O)N[C@@H](C(=O)N2CCN(c3ccc(F)cc3S(C)(=O)=O)CC2)c2ccccc2)cc1N [Example 38, 1-(3-Amino-4-methylbenzoyl-D-phenylglycinyl)-4-(4-fluoro-2-methylsulphonylphenyl)piperazine] | 9.0 |
| 1-(3,4 Diaminobenzoyl-D-phenylglycinyl)-4-(4-fluoro-2-methylsulphonylphenyl)piperazine [Example 32] | 11 |
| Cc1ccc(C(=O)N[C@@H](C(=O)N2CCC(C3CCN(C)CC3)CC2)c2ccccc2)cc1N [Example 64, 1-(3-Amino-4-methylbenzoyl-D-phenylglycinyl)-1′-methyl-4,4′-bispiperidine] | 4.4 |
| COc1ccc(C(=O)N[C@@H](C(=O)N2CCN(c3ccc(F)cc3S(C)(=O)=O)CC2)c2ccccc2)cc1N [Example 40, 1-(3-Amino-4-methoxybenzoyl-D-phenylglycinyl)-4-(4-fluoro-2-methylsulphonylphenyl)piperazine] | 12 |
| CN1CCC(C2CCN(C(=O)[C@H](NC(=O)c3cc4ccccc4cc3N)c3ccccc3)CC2)CC1 [Example 65, 1-(3-Aminonaphth-2-oyl-D-phenylglycinyl)-1′-methyl-4,4′-bispiperidine] | 6.1 |
